Reference: PubChem BioAssay AID651871 (Sanford-Burnham Center for Chemical Genomics, 2012)
pIC50: −log10 of the molar value. Several values for one entry are separate records, joined by “and”; a condition that tells them apart may be missing. Equal entries are not always repeated. Activity calls are given as the source filed them.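 How the source made its calls: active means compound whose mean IC50 is 10 µM or lower in every cell protection panel where tested; inactive means the rest.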

Columns and labels:
HL-1 = test: cardiomyocyte survival under oxidative or metabolic stress – cell-based, panel, H9c2 and HL-1, ATP luminescence, set 2, SAR follow-up (AID 651871); conditions: H9c2/HL-1 cardiomyocytes;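 further: cells exposed to stressor for 2 h before ATP readout; potency for protection of cells against peroxide damage not for cytotoxicity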
H9c2 = test: as above; conditions: H9c2/HL-1 cardiomyocytes
[1] = 2-deoxyglucose stress, with 2-deoxyglucose, mean of runs
[2] = H2O2 oxidative stress, with H2O2, mean of runs

Compound	pIC50 (HL-1; [1])	pIC50 (HL-1; [2])	pIC50 (H9c2; [1])	pIC50 (H9c2; [2])	IC50 (HL-1; [1])	IC50 (HL-1; [2])	IC50 (H9c2; [1])	IC50 (H9c2; [2])
CCOC(=O)c1cccc(NC(=O)CNC(=O)c2cc(-c3cc(OC)c(OC)c(OC)c3)nc3ccccc23)c1	5.54	5.47	5.57	6.55	–	–	–	–
COc1ccc2nc(-c3cc(OC)c(OC)c(OC)c3)cc(C(=O)NCC(=O)Nc3ccc(C(C)=O)cc3)c2c1	5.37	5.19 and 5.40	5.41	6.20 and 6.36	–	–	–	–
COc1cc(-c2cc(C(=O)Nc3cccc(C(=O)NCc4ccccc4)c3)c3ccccc3n2)cc(OC)c1OC	–	5.40	–	6.39	–	–	–	–
COc1ccc2c(c1OC)C(=O)N1c3ccccc3C(=O)N(Cc3cccc(Cl)c3Cl)C21 (centres undefined)	–	–	–	–	2.65 µM and 3.05 µM and > 79 µM (inactive)	> 79 µM (inactive)	4570 nM and 6370 nM and > 79000 nM (inactive)	215 nM and 391 nM and 11700 nM (inactive)
